Data reported in patent US8314098B2, “Pyrazolo-pyrimidine compounds” (Ajinomoto Co., Inc., priority 2008, dated 2012).

system: IL-12p70 (the complex of IL-12p35 and p40); experiment: IL-12p70 production inhibition in macrophages derived from mouse abdomen (IFN-γ/SAC stimulation, ELISA); format: cell-based; conditions: Macrophage; mouse (Balb/c) abdominal macrophages, 100 ng/mL mouse IFN-γ + 0.05% SAC, overnight; TFA salts tested where prepared as such; read-out: IL-12p70-Inhibitory Activity IC50
Description: One milliliter each of a 3% (w/v) thioglycolate solution was intraperitoneally administered to mice (female Balb/c mice), the abdominal cells of each mouse were recovered after 5 or 6 days from the administration of the thioglycolate solution and the adhesive cells were collected and used in the exaluation procedures. To a culture medium containing such adhesive cells, there were added 100 ng/mL of mouse interferon-γ and a 0.05% (v/v) liquid containing killed cells derived from Staphylococcus aureus Cowan I strain (SAC) and a candidate compound and then the mixture was cultivated overnight. After the completion of the cultivation, the survival ratios were determined, there were quantitatively determined the quantities of IL-12p70 (the complex of IL-12p35 and p40) and IL-12p40 or TNF-α according to the ELISA assays while making use of the recovered supernatant of the culture medium and the 50% production-inhibitory concentration (IC50) was calculated for each case (see Table 1 and Tables 1-9 for IL-12p70 and TNF-α and Tables 1 to 10 for IL-12p40).

| SMILES | IC50 [µM] |
| --- | --- |
| C(=N\Nc1cc(N2CCOCC2)n2nc(-c3ccncc3)cc2n1)/c1csc2ccccc12 [Compound 109, N-benzo[b]thiophen-3-yl-methylidene-N′-(7-morpholin-4-yl-2-pyridin-4-yl-pyrazolo[1,5-a]pyrimidin-5-yl)-hydrazine] | 0.49 |
| CN(Cc1ccccc1)Nc1cc(N2CCOCC2)n2nc(-c3ccccc3)cc2n1 [Compound 66, N-benzyl-N-methyl-N′-(7-morpholin-4-yl-2-phenyl-pyrazolo[1,5-a]pyrimidin-5-yl)-hydrazine] | 0.33 |
| C(=N\Nc1cc(N2CCOCC2)n2nc(-c3cnccn3)cc2n1)/c1c[nH]c2ccccc12 [Compound 93, N-(1H-indol-3-yl-methylidene)-N′-(7-morpholin-4-yl-2-pyrazin-2-yl-pyrazolo[1,5-a]pyrimidin-5-yl)-hydrazine] | 0.0065 |
| Cc1cccc(/C=N/Nc2cc(N3CCOCC3)n3nc(OCCOc4ccccc4)cc3n2)c1 [Compound 37, N-(3-methyl-benzylidene)-N′-[7-morpholin-4-yl-2-(2-phenoxy-ethoxy)-pyrazolo[1,5-a]pyrimidin-5-yl]-hydrazine] | 0.11 |
| Cc1cccc(/C=N/Nc2cc(N3CCOCC3)n3nc(-c4cc(C)on4)cc3n2)c1 [Compound 98, N-(3-methyl-benzylidene)-N′-[2-(5-methylisoxazol-3-yl)-7-morpholin-4-yl-pyrazolo[1,5-a]pyrimidin-5-yl]-hydrazine] | 0.026 |
| Cc1[nH]c2ccc(/C=N/Nc3cc(N4CCOCC4)n4nc(-c5cnccn5)cc4n3)cc2c1C [Compound 107, N-(2,3-dimethyl-1H-indol-5-yl-methylidene)-N-(7-morpholin-4-yl-2-pyrazin-2-yl-pyrazolo[1,5-a]pyrimidin-5-yl)-hydrazine] | 0.17 |
| Cc1[nH]c2ccc(/C=N/Nc3cc(N4CCOCC4)n4nc(-c5cccnc5)cc4n3)cc2c1C [Compound 105, N-(2,3-dimethyl-1H-indol-5-yl-methylidene)-N-(7-morpholin-4-yl-2-pyridin-3-yl-pyrazolo[1,5-a]pyrimidin-5-yl)-hydrazine] | 0.089 |
| CC(=O)N1CCC(c2cc3nc(N/N=C/c4cccc(C)c4)cc(N4CCOCC4)n3n2)CC1 [Compound 133, N-[2-(1-acetyl-piperidin-4-yl)-7-morpholin-4-yl-pyrazolo-[1,5-a]pyrimidin-5-yl]-N′-(3-methyl-benzylidene)-hydrazine] | 0.096 |
| Cc1cccc(/C=N/Nc2cc(N3CCOCC3)n3nc(-c4cncnc4)cc3n2)c1 [Compound 124, N-(3-methyl-benzylidene)-N′-(7-morpholin-4-yl-2-pyrimidin-5-yl-pyrazolo[1,5-a]pyrimidin-5-yl)-hydrazine] | 0.02 |
| Cc1cc(-c2cc3nc(N/N=C/c4c[nH]c5ccccc45)cc(N4CCOCC4)n3n2)no1 [Compound 99, N-(1H-indol-3-yl-methylidene)-N′-[2-(5-methylisoxazol-3-yl)-7-morpholin-4-yl-pyrazolo[1,5-a]pyrimidin-5-yl]-hydrazine] | 0.016 |
| COCCN(CCOC)c1ccc(-c2cc3nc(N/N=C/c4cccc(C)c4)cc(N4CCOCC4)n3n2)cc1 [Compound 32, N-{2-[4-bis-(2-methoxy-ethyl-amino)-phenyl]-7-morpholin-4-yl-pyrazolo[1,5-a]pyrimidin-5-yl}-N′-(3-methyl-benzylidene)-hydrazine] | 0.0096 |
| Cc1ccc(-c2cc3nc(N/N=C/c4coc5ccccc45)cc(N4CCOCC4)n3n2)cn1 [Compound 111, N-benzofuran-3-yl-methylidene-N′-[2-(6-methyl-pyridin-3-0)-7-morpholin-4-yl-pyrazolo[1,5-a]pyrimidin-5-yl]-hydrazine] | 0.037 |
| Cc1cccc(/C=N/Nc2cc(N3CCOCC3)n3nc(N4CCCCC4)cc3n2)c1 [Compound 100, N-(3-methyl-benzylidene)-N-(7-morpholin-4-yl-2-piperidin-1-yl-pyrazolo[1,5-a]pyrimidin-5-yl)-hydrazine] | 0.36 |
| C(=N\Nc1cc(N2CCOCC2)n2nc(-c3ccc(N4CCOCC4)nc3)cc2n1)/c1c[nH]c2ccccc12 [Compound 86, N-(1H-indol-3-yl-methylidene)-N′-[7-morpholin-4-yl-2-(6-morpholin-4-yl-pyridin-3-yl)-pyrazolo[1,5-a]pyrimidin-5-yl]-hydrazine] | 0.0018 |

Further lines, results first:

| IC50 [µM] | SMILES |
| --- | --- |
| 0.055 | CCc1cccc(/C=N/Nc2cc(N3CCOCC3)n3nc(-c4cccnc4)cc3n2)c1 [Compound 115] |
| 0.32 | Cc1ccsc1/C=N/Nc1cc(N2CCOCC2)n2nc(-c3ccccc3)cc2n1 [Compound 62, N-(3-methyl-thiophen-2-yl-methylidene)-N′-(7-morpholin-4-yl-2-phenyl-pyrazolo[1,5-a]pyrimidin-5-yl)-hydrazine] |
| 0.0073 | Cc1cccc(/C=N/Nc2cc(N3CCOCC3)n3nc(-c4ccc(C)nc4)cc3n2)c1 [Compound 110, N-(3-methyl-benzylidene)-N′-[2-(6-methyl-pyridin-3-yl)-7-morpholin-4-yl-pyrazolo[1,5-a]pyrimidin-5-yl]-hydrazine] |
| 0.3 | Cc1ccc(/C=N/Nc2cc(N3CCOCC3)n3nc(-c4ccccc4)cc3n2)o1 [Compound 54, N-(5-methyl-furan-2-yl-methylidene)-N′-(7-morpholin-4-yl-2-phenyl-pyrazolo[1,5-a]pyrimidin-5-yl)-hydrazine] |
| 0.16 | COc1ccccc1/C=N/Nc1cc(N2CCOCC2)n2nc(-c3ccccc3)cc2n1 [Compound 28, N-(2-methoxy-benzylidene)-N′-(7-morpholin-4-yl-2-phenyl-pyrazolo[1,5-a]pyrimidin-5-yl)-hydrazine] |
| 0.25 | OB(O)c1cccc(/C=N/Nc2cc(N3CCOCC3)n3nc(-c4ccccc4)cc3n2)c1 [Compound 139, N-(3-boronyl-benzylidene)-N-(7-morpholin-4-yl-2-phenyl-pyrazolo[1,5-a]pyrimidin-5-yl)-hydrazine] |
| 0.12 | Clc1cccc(/C=N/Nc2cc(N3CCOCC3)n3nc(-c4ccccc4)cc3n2)c1 [Compound 26, N-(3-chloro-benzylidene)-N′-(7-morpholin-4-yl-2-phenyl-pyrazolo[1,5-a]pyrimidin-5-yl)-hydrazine] |
| 0.19 | C(=N\Nc1cc(N2CCOCC2)n2nc(-c3ccccc3)cc2n1)/c1cccc2[nH]ccc12 [Compound 72, N-(1H-indol-4-yl-methylidene)-N′-(7-morpholin-4-yl-2-phenyl-pyrazolo[1,5-a]pyrimidin-5-yl)-hydrazine] |
| 0.32 | CC(/C=N/Nc1cc(N2CCOCC2)n2nc(-c3ccccc3)cc2n1)=C\c1ccccc1 [Compound 63, N-(2-methyl-3-phenyl-alkylidene)-N′-(7-morpholin-4-yl-2-phenyl-pyrazolo[1,5-a]pyrimidin-5-yl)-hydrazine] |
| 0.15 | Clc1ccccc1/C=N/Nc1cc(N2CCOCC2)n2nc(-c3ccccc3)cc2n1 [Compound 25, N-(2-chloro-benzylidene)-N′-(7-morpholin-4-yl-2-phenyl-pyrazolo[1,5-a]pyrimidin-5-yl)-hydrazine] |
| 0.13 | Cc1cccc(/C=N/Nc2cc(N3CCOCC3)n3nc(OCc4ccccc4)cc3n2)c1 [Compound 134, N-(2-benzyloxy-7-morpholin-4-yl-pyrazolo[1,5-a]pyrimidin-5-yl)-N′-(3-methyl-benzylidene)-hydrazine] |
